Measured values published in patent US20040014794A1, “Use of hydroxypyridone-derivatives in wound healing” (priority 2002, published 2004).
Where a name gives a salt, the structure may show the parent alone. Read-outs that look alike come from different tables or passages of the source.

Assays:
[1] = tested on: rabbit skin; conditions: 1% CPX solution applied on rabbit skin over 20 days; cited from earlier work
[2] = tested on: VEGF promoter; assay: VEGF promoter-driven luciferase reporter gene assay in transiently transfected HepG2 cells; assay type: cell-based, human; conditions: increasing concentrations of CPX for 24 hours
Procedure: The HRCHO5 cells containing a stable transfected, HIF-1-dependent reporter gene were described previously (Wanner, R. M., et al. (2000), Epolones Induce Erythropoietin Expression Via Hypoxia-Inducible Factor-1α Activation, Blood 96, 1558-1565). The human HepG2 hepatoma cell line was obtained from American Type Culture Collection (ATCC numbers HB-8065). All cell lines were cultured in Dulbecco's modified Eagle's medium (DMEM, high glucose, Life Technologies) supplemented with 10% heat-inactivated FCS, 100 U/ml penicillin, 100 μg/ml streptomycin, 1× non-essential amino acids and 1 mM Na-pyruvate (all purchased from Life Technologies) in a humidified atmosphere containing 5% CO2 at 37° C. […]
HepG2 cells were transiently electroporated with a VEGF promoter-driven luciferase construct as described previously (Ikeda, E., et al. (1995), Hypoxia-Induced Transcriptional Activation and Increased mRNA Stability of Vascular Endothelial Growth Factor in C6 Glioma Cells, J. Biol. Chem. 270, 19761-19766). Following stimulation, transiently and stable transfected cells were lysed in passive lysis buffer (Promega) and the luciferase activity was determined using a luciferase assay kit according to the manufacturer's instructions (Promega) in a 96-well luminometer (MicroLumat LB96P, EG&G Berthold). […] Absorbances at 570 nm were determined in a 96-well photometer (Rainbow, SLT Labsystems). […]

[3] = tested on: HIF-1 target genes VEGF, glucose transporter-1 (Glut-1) and aldolase; assay: Northern blotting of mRNA of endogenous HIF-1 target genes in HepG2 cells; assay type: cell-based, human; conditions: HepG2 cells treated for 24, 48 and 72 hours; control genes L28 and β-actin not induced
Procedure: (§1) The HRCHO5 cells containing a stable transfected, HIF-1-dependent reporter gene were described previously (Wanner, R. M., et al. (2000), Epolones Induce Erythropoietin Expression Via Hypoxia-Inducible Factor-1α Activation, Blood 96, 1558-1565). The human HepG2 hepatoma cell line was obtained from American Type Culture Collection (ATCC numbers HB-8065). All cell lines were cultured in Dulbecco's modified Eagle's medium (DMEM, high glucose, Life Technologies) supplemented with 10% heat-inactivated FCS, 100 U/ml penicillin, 100 μg/ml streptomycin, 1× non-essential amino acids and 1 mM Na-pyruvate (all purchased from Life Technologies) in a humidified atmosphere containing 5% CO2 at 37° C. Oxygen partial pressures in the incubator (Forma Scientific, model 3131) were either 140 mm Hg (20% 02 v/v, normoxia) or 7 mm Hg (1% O2 v/v, hypoxia). Ciclopirox olamine (CPX), deferoxamine mesylate (DFX) and 2,2′-dipyridyl (DP) were purchased from Sigma. Stock solutions of CPX and DP were prepared in methanol at 0.5 M and 1 M, respectively. DFX was freshly dissolved at 10 mM into the cell culture medium.

[4] = tested on: gram-positive and gram-negative bacteria; conditions: cited from earlier work
[5] = tested on: HIF-1α protein; assay: HIF-1α protein induction in HepG2 hepatoma cells; assay type: cell-based, human; conditions: for HIF-1α levels, combination with hypoxia: CPX plus hypoxia (1% O2)
Procedure: as §1

[6] = tested on: VEGF protein; assay: Accumulation of VEGF protein in the supernatant of the HepG2 cell culture; assay type: cell-based, human; conditions: following 6 or 24 hours of treatment
Procedure: as §1

[7] = tested on: chicken chorioallantoic membrane (CAM)
Procedure: CAM assays were performed as described by Olivo, M. et al. (A Comparative Study on The Effects of Tumor Necrosis Factor-A (TNF-α), Human Angiogenic Factor (h-AF) and Basic Fibroblast Growth Factor (bFGF) on the Chorioallantoic Membrane of the Chick Embryo, (1992) Anat. Rec. 234, 105-115). Briefly, fertilized eggs (purchased from Lohmann Tierzucht, Cuxhaven, Germany) were incubated at 37° C. in a humidified atmosphere. The eggs were kept on their sides and turned upside down twice a day. After 6 days, a small hole was drilled through the shell into the air sac (visualized using a strong light source) and a window of approximately 0.5 cm^2 was sawed into the side of the egg. The window was sealed with tape and the eggs were reincubated until day 9, when 6-cyclohexyl-1-hydroxy-4-methyl-2(1H)-pyridone 2-aminoethanol salt (CPX) was applied to the CAM using the Elvax® method (see Olivo, M. et al. above). Therefore, ethylene/vinyl acetate copolymer beads (Elvax®) 40L-03, DuPont, provided by C. H. Erbslöh KG, Krefeld, Germany) were extensively washed in ethanol and dried under reduced pressure. The Elvax® beads were then dissolved in methylene chloride at 10% (w/v) and CPX was added to the desired concentration. One drop (40 μL) of this solution was pipetted onto a siliconized glass slide and the solvent was allowed to evaporate completely. Using forceps, the Elvax® disc was carefully lifted from the glass slides and placed onto the CAM. At day 11, the window was enlarged and the CAM was documented using a digital camera (Olympus) coupled to an ocular of a stereomicroscope.
Therefore, the chicken CAM at day 9 of development was overlaid with inert polymer discs containing various concentrations of CPX or solvent only.

[8] = tested on: NMRI mice; assay: Mouse skin wound model (punch-through ear holes); conditions: dermal cream containing 1% CPX, daily
Procedure: Both ears of adult NMRI mice were wounded under anesthesia with 100 mg/kg ketamine (Narketan®) and 5 mg/kg xylazine (Rompun®) by punch-through holes of 2 mm diameter using a standard ear-punching tool. The ears were treated daily with a common skin cream containing (Batrafen®) or not containing 1% (w/v) CPX. One ear was treated with CPX and the other ear with the control cream. The amount of cream was sufficient to cover the hole and was equally distributed over the entire ear.
Punch-through ear holes of 2 mm diameter (a widespread way of marking mice in animal facilities) were treated daily with a commercially available dermal cream containing 1% CPX on one ear and a CPX-free but otherwise identical common dermal cream on the other ear, respectively.

[9] = tested on: isolated rat kidneys; assay: Isolated perfused rat kidney (ex vivo model)
Excerpt: Systemically administered DFX can induce ubiquitous HIF-1 stability and kidney-specific erythropoietin expression in mice (Wang, G. L., and Semenza, G. L. (1993), Desferrioxamine Induces Erythropoietin Gene Expression and Hypoxia-Inducible Factor 1 DNA-Binding Activity: Implications for Models of Hypoxia Signal Transduction, Blood 82, 3610-3615). Regarding a topical application of CPX as a HIF-1-inducing agent for therapeutic angiogenesis, it was important to test whether CPX could lead to a systemic induction of VEGF. […]

[10] = tested on: HIF-1; conditions: systemically administered, mice; cited from earlier work
[11] = higher CPX concentrations (33 μM and 100 μM)
[12] = perfused 3 hours, normoxic, 0.1 μM to 100 μM

## Cc1cc(C2CCCCC2)n(O)c(=O)c1.NCCO [CPX, 6-cyclohexyl-1-hydroxy-4-methyl-2(1H)-pyridone 2-aminoethanol salt]
[1]
  reddening of experimentally wounded skin: persistent reddening
  reddening of healthy skin: occasionally transient reddening
[2]
  luciferase activity (1180 bp VEGF promoter fragment): dose-dependent increase
[3]
  expression of VEGF mRNA: induced
  expression of aldolase mRNA: induced
  expression of glucose transporter-1 (Glut-1) mRNA: induced
[4]
  effectiveness against gram-positive and gram-negative bacteria: effective
[5]; 5 μM to 20 μM, normoxic HepG2 cells, after 6 and 24 hours of treatment
  HIF-1α protein: strongly induced
[5]; after 6 hours
  HIF-1α levels, combination with hypoxia: did not further increase
[5]; after 24 hours of treatment
  HIF-1α levels, combination with hypoxia: decreased
[6]
  VEGF protein in the supernatant: increased in a dose-dependent manner
[7]; 50 mM CPX, all 7 control CAMs lacked angiogenesis
  number of CAMs showing angiogenesis: 10
[7]; polymer discs containing 5 mM CPX
  CAM angiogenesis: indistinguishable from the controls
[7]; polymer discs containing 50 mM CPX, two days of incubation
  CAM angiogenesis: consistently induced CAM angiogenesis
[7]; polymer discs containing 500 mM CPX
  toxicity to the chick embryo: toxic
[8]
  animals showing reddening of the wound margin: 4 of 10
  reddening of the wound margin: can cause reddening
[8]; ear holes of 2 mm diameter
  angiogenesis in mouse skin wound model: can induce angiogenesis
[9]; [11]
  albumin and sodium excretion rates: strong increase
  kidney function: down regulation
[9]; [12]
  Glut-1 mRNA level: did not induce
  VEGF mRNA level: did not induce
  aldolase mRNA level: did not induce
[9]; perfusion with 3% oxygen for 3 hours plus CPX
  Glut-1 mRNA level under hypoxic perfusion: not further elevated

## CC(=O)N(O)CCCCCNC(=O)CCC(=O)N(O)CCCCCNC(=O)CCC(=O)N(O)CCCCCN [DFX, deferoxamine mesylate]
[3]
  expression of VEGF mRNA: induced
  expression of aldolase mRNA: induced
  expression of glucose transporter-1 (Glut-1) mRNA: induced
[10]
  kidney-specific erythropoietin expression: can induce
  ubiquitous HIF-1 stability: can induce

## c1ccc(-c2ccccn2)nc1 [DP, 2,2′-dipyridyl]
[3]
  expression of VEGF mRNA: induced
  expression of aldolase mRNA: induced
  expression of glucose transporter-1 (Glut-1) mRNA: induced
